SMILES strings stand for the structures.

For one series, the target named is T1, RET kinase (Homo sapiens, UniProt P07949).
T1 construct: purchased Carna 08-159
The experiment in a line: HTRF kinase activity inhibition, RET wild-type. Format: biochemical. Conditions: ATP at Km. The procedure, abridged:
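HTRF (KinEASE-TK) kinase assay with recombinant RET wild-type, RET V804M, RET V804L and KIF5B-RET enzymes plus ATP.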

In another series the target is T2, KDR kinase (Homo sapiens, UniProt P35968).
T2 construct: purchased Carna 08-191
T2 sequence (P35968 20-1356): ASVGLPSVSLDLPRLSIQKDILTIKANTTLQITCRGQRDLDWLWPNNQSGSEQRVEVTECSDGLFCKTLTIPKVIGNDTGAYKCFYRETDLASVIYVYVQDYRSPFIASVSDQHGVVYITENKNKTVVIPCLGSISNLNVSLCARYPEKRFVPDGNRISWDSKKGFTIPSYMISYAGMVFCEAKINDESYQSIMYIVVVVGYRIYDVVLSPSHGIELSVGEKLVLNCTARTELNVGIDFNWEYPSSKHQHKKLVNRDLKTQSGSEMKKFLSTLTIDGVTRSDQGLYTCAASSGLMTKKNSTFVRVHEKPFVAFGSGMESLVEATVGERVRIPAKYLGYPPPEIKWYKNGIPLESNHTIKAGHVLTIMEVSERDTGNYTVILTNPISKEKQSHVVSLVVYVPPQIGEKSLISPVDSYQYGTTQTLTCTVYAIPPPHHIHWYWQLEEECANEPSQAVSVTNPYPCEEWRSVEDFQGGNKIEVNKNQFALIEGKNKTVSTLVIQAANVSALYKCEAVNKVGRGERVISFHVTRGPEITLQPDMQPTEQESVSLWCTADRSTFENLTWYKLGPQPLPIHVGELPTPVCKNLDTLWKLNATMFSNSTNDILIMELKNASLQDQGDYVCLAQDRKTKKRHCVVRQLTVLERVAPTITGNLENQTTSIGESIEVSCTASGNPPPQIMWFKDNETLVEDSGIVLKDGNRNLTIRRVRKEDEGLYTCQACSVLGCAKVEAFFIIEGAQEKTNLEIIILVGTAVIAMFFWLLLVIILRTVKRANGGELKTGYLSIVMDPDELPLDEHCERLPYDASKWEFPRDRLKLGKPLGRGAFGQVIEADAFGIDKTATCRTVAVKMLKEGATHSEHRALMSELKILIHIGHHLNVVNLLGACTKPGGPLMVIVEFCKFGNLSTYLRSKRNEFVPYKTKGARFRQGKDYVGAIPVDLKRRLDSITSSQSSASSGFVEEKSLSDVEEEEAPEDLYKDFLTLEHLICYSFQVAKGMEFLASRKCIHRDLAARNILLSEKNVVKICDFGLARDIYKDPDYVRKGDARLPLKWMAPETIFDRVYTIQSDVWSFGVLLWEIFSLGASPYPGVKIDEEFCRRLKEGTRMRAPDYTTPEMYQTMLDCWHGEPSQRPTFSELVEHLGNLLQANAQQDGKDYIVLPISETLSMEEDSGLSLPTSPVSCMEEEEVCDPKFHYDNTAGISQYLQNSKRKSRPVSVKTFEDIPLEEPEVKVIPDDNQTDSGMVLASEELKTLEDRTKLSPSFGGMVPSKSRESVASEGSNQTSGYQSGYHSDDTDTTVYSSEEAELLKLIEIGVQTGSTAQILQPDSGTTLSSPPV
The experiment in a line: HTRF kinase activity inhibition, KDR. It is filed as biochemical. The following applies: for IC50: HTRF, ATP at Km; for Ratio (KDR/RET): KDR IC50 / RET IC50. In short, it runs like this:
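Inhibition of KDR kinase activity measured by homogeneous time-resolved fluorescence with a tyrosine-kinase KinEASE substrate kit and ATP.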

The next series concerns the target T3, Ba/F3 KIF5B-RET cells (Homo sapiens, UniProt P07949).
T3 construct: fused on or other part: P33176 (Kinesin-1 heavy chain)
The experiment in a line: Inhibition of proliferation of Ba/F3 KIF5B-RET cells (CellTiter-Glo). It is filed as cell-based. Conditions: 72 to 144 hours. The procedure, abridged:
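Cells plated overnight, then exposed to compound dilutions in DMSO/medium at 37° C, 5% CO2 for 72 to 144 hours. Viability read by CellTiter-Glo luminescence; IC50 from inhibition rates fitted by nonlinear regression.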
(In general: ATP-based viability assays read luminescence as a measure of living cells.)

Series [1] is described as follows: Balb/C mouse pharmacokinetics, oral 5 mg/kg. It is filed as in vivo, Balb/C mice. The following applies: male, p.o. 5 mg/kg, plasma; for MRT: read-out: Average residence time MRT; for Cmax: read-out: Blood concentration Cmax; for AUC(0-t): read-out: Curve area AUC0-t; for AUC(0-inf): read-out: Curve area AUC0-∞; for half-life: read-out: Half-life t1/2 (converted); for Tmax: read-out: Peak time tmax. In short, it runs like this: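 Male Balb/C mice (6 per compound) were fasted overnight and dosed in 0.5% CMC-Na (1% Tween80) solution or suspension. EDTA-K2 plasma was sampled at 0, 0.5, 1, 2, 4, 6, 8 and 24 h. Compound levels were measured by LC/MS/MS after acetonitrile precipitation, and PK parameters were derived from the plasma profiles.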

Series [2] has as its system TT cells (MTC, RET C634W). The experiment in a line: Inhibition of proliferation of TT cells (CellTiter-Glo, 72 h). The following applies: Homo sapiens. It is filed as cell-based. The procedure, abridged:
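TT cells seeded overnight, then exposed to compound dilutions for 72 h at 37 °C, 5% CO2, with a solvent control. Viability read by CellTiter-Glo luminescence; IC50 from nonlinear regression of inhibition rate versus concentration.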

T3 sequence (P07949 whole entry, change not shown, the tested form may be a part): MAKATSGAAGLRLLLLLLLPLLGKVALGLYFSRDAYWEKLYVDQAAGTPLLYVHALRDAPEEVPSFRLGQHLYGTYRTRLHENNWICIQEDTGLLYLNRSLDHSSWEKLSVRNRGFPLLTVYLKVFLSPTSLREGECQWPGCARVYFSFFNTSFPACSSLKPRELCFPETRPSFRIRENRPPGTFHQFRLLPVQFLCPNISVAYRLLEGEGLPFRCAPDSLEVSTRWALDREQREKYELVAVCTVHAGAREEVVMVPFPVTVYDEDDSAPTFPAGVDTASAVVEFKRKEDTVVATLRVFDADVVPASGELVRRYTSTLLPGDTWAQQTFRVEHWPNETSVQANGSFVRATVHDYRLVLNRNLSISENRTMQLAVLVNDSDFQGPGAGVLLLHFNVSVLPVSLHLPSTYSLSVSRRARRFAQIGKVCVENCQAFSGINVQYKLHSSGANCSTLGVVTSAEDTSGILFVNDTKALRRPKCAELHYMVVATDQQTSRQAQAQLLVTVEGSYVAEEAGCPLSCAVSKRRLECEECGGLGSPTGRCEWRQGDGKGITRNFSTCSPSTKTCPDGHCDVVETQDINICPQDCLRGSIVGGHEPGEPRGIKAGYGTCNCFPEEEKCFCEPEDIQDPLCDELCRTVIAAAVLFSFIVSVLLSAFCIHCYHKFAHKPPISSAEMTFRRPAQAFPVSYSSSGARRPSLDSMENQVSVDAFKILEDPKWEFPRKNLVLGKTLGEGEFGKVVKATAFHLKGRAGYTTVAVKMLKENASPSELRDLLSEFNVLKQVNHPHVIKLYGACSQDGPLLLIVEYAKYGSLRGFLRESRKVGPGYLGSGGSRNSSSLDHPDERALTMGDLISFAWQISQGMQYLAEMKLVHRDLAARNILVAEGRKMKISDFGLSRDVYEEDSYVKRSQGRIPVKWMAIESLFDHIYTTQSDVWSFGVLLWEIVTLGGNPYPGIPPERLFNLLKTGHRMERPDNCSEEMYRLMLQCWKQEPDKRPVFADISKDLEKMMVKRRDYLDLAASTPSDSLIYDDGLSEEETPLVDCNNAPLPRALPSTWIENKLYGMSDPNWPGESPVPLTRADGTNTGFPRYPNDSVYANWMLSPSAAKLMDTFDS
T1 sequence (P07949 29-1114): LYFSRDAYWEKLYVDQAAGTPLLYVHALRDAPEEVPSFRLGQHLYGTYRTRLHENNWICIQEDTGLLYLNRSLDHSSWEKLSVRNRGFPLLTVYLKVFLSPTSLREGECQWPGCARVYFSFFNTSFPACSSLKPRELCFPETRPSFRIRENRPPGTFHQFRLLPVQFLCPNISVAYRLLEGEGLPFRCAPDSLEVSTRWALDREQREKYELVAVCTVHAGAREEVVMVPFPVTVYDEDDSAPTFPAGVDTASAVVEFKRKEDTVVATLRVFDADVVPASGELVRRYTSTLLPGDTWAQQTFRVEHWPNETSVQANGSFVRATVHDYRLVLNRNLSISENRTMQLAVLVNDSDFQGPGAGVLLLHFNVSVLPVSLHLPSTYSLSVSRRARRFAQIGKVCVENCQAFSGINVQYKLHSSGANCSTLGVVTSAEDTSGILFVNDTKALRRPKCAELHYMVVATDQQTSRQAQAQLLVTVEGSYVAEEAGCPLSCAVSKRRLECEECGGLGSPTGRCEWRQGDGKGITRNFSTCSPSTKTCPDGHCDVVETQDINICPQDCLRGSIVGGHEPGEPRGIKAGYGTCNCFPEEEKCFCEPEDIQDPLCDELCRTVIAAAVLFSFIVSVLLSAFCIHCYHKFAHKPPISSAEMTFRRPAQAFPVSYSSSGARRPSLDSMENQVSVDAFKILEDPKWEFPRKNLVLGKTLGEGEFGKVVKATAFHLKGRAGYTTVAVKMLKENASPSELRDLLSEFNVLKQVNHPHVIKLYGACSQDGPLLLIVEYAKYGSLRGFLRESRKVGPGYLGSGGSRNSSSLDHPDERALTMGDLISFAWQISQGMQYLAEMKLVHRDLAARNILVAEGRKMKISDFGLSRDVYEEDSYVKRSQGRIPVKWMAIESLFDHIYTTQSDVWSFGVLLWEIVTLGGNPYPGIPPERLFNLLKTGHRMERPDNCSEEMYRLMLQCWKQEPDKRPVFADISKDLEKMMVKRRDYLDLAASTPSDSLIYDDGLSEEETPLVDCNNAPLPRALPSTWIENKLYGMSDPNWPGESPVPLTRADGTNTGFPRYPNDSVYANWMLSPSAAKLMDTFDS

With `COc1ncc(CN2C3CC2CN(c2ccc(-c4cc(OCC5(C#N)CC5)cn5ncc(C#N)c45)cn2)C3)cc1F` [Embodiment 55, 6-((1-Cyanocyclopropyl)methoxy)-4-(6-(6-((5-fluoro-6-methoxypyridin-3-yl)methyl)-3,6-diazabicyclo[3.1.1]heptan-3-yl)pyridin-3-yl)pyrazolo[1,5-a]pyridine-3-carbonitrile], the midpoint of inhibition against RET kinase, the IC50, lay at 0.31 nM. Besides, at KDR kinase, the IC50 (usually the concentration that inhibits the measured activity by half) is 37.5 nM and the “Ratio (KDR/RET)” value is listed as 121. Besides, at Ba/F3 KIF5B-RET cells, the IC50 stood at 19.6 nM. In addition, in series [1], the MRT (in general, the average time that molecules of a dose stay in the body) amounted to 6.51 h; the Cmax stood at 1940 ng/mL; the AUC(0-t) was 21600 ng·h/mL; the AUC(0-inf) is 22100 ng·h/mL. Besides, in series [1], the half-life is 4.26 h and the Tmax (usually the time at which the peak concentration occurs) came to 2 h. Moreover, the IC50 in series [2] was found to be 28.5 nM.
Consider `COc1ncc(CN2C3CC2CN(c2ccc(-c4cc(OCC5(C#N)CCOCC5)cn5ncc(C#N)c45)cn2)C3)cc1F` [Embodiment 60, 6-((4-Cyanotetrahydro-2H-pyran-4-yl)methoxy)-4-(6-(6-((5-fluoro-6-methoxypyridin-3-yl)methyl)-3,6-diazabicyclo[3.1.1]heptan-3-yl)pyridin-3-yl)pyrazolo[1,5-a]pyridine-3-carbonitrile], for which, at RET kinase, the IC50 is 0.58 nM. For the same molecule, at KDR kinase, it took 257 nM to reach half-maximal inhibition (IC50) and the “Ratio (KDR/RET)” value is listed as 445. The IC50 at Ba/F3 KIF5B-RET cells was found to be 18 nM. In series [1], the MRT is 5.56 h, the Cmax worked out at 3080 ng/mL, the AUC(0-t) was found to be 28000 ng·h/mL and the AUC(0-inf) was found to be 28200 ng·h/mL. In series [1], the half-life is 3.26 h and the Tmax was 0.5 h. For the same molecule, the IC50 in series [2] was 28.4 nM.
Consider `COc1ccc(CN2C3CC2CN(c2ccc(-c4cc(OCC(C)(C)C#N)cn5ncc(C#N)c45)cn2)C3)cn1` [Embodiment 9, 6-(2-Cyano-2-methylpropoxy)-4-(6-(6-((6-methoxypyridin-3-yl)methyl)-3,6-diazabicyclo[3.1.1]heptan-3-yl)pyridin-3-yl)pyrazolo[1,5-a]pyridine-3-carbonitrile], for which, at RET kinase, the IC50 came out at 0.76 nM. For the same molecule, at KDR kinase, half-maximal inhibition (IC50) was put at 70 nM and the “Ratio (KDR/RET)” value is listed as 92. Further, on Ba/F3 KIF5B-RET cells, the IC50 was 28.9 nM. Besides, in series [1], the MRT came to 5.84 h, the Cmax is 1920 ng/mL, the AUC(0-t) is 16100 ng·h/mL and the AUC(0-inf) was determined as 16400 ng·h/mL. In addition, in series [1], the half-life was 4.2 h and the Tmax is 0.5 h. In addition, the IC50 in series [2] turned out to be 29.3 nM.

(Values after patent publication US20230406865A1, “CRYSTAL FORM OF FREE BASE OF INHIBITOR CONTAINING BICYCLIC RING DERIVATIVE AND PREPARATION METHOD AND APPLICATION OF CRYSTAL FORM” (SHANGHAI HANSOH BIOMEDICAL CO., LTD., priority 2020, published 2023).)
